Here are results for 28 molecules from patent US10758534B2 (Vertex Pharmaceuticals Incorporated, priority 2014, dated 2020).

T1 sequence (P13569 with tags, fused parts or gaps DEL508-508): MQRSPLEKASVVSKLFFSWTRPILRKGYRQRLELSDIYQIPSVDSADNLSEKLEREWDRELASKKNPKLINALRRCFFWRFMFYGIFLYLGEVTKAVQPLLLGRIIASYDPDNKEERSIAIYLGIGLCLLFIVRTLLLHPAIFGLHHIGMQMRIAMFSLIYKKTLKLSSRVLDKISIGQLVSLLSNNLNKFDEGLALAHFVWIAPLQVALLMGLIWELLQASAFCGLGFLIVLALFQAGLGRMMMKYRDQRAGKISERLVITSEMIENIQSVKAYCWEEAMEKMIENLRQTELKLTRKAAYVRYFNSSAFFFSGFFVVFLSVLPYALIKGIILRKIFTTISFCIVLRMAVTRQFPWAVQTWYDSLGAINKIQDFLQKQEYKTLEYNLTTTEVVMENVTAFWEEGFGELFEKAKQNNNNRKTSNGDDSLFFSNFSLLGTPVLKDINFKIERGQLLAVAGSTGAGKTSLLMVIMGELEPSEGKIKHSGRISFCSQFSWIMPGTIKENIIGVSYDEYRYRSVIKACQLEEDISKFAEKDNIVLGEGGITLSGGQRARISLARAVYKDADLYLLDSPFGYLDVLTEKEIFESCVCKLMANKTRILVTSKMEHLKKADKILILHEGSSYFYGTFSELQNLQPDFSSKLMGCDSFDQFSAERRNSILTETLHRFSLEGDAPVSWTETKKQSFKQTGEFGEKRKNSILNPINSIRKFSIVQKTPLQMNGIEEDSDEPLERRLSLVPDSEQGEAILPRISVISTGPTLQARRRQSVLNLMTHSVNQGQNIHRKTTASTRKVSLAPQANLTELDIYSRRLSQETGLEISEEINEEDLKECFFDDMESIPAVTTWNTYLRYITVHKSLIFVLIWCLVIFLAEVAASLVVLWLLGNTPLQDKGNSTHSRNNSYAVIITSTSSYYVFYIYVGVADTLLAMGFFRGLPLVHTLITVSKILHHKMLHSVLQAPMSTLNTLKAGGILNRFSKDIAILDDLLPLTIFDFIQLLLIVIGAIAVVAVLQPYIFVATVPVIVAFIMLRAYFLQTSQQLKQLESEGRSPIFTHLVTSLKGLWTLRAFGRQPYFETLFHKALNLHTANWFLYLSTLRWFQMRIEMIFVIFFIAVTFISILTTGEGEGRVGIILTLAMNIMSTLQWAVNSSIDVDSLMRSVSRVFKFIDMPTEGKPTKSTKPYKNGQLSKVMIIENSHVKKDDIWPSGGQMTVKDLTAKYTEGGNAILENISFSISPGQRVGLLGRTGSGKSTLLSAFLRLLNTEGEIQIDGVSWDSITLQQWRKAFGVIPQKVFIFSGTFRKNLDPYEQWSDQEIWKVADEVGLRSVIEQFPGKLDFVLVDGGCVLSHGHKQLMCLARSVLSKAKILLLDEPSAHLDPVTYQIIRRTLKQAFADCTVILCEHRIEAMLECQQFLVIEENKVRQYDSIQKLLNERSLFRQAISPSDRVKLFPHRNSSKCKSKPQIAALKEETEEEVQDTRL

The assay addresses T1, F508del (Homo sapiens, UniProt P13569, DEL508-508).
T1 construct: expressed in transfected cells
Put plainly: Protocol 1: membrane potential optical assay (FLIPR III, voltage sensing dye), identification of potentiator compounds. It counts as cell-based. As to conditions: Table 3, compounds of Table 1. An outline of the steps:
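Gating potentiation is read as a membrane-potential fluorescence change (FLIPR III, voltage-sensing dye) after one forskolin addition under a Cl− gradient, with gluconate replacing chloride, pH 7.4. Cells are F508del-expressing NIH3T3 mouse fibroblasts held 24 h at 27 °C and exposed to compound before dye loading.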
Regarding `CCOc1cc(C)cc(-c2ccc(C(=O)NS(=O)(=O)c3cccc(N)n3)c(N3C[C@@H](C)CC3(C)C)n2)n1` [Compound 1512, N-[(6-amino-2-pyridyl)sulfonyl]-6-(6-ethoxy-4-methyl-2-pyridyl)-2-[(4S)-2,2,4-trimethylpyrrolidin-1-yl]pyridine-3-carboxamide], the EC30 entry was “+++ (“+++” means <3 uM)”.

For the molecule `COc1cc(OC)cc(-c2ccc(C(=O)NS(=O)(=O)c3ccc[nH]c3=O)c(N3C[C@@H](C)CC3(C)C)n2)c1` [Compound 1878, 6-(3,5-dimethoxyphenyl)-N-[(2-oxo-1H-pyridin-3-yl)sulfonyl]-2-[(4S)-2,2,4-trimethylpyrrolidin-1-yl]pyridine-3-carboxamide], the EC30 result was “++ (“++” means between 3 uM and 10 uM)”.

Take `CC(C)COc1cc(F)cc(-c2ccc(C(=O)NS(=O)(=O)c3cccc(N)n3)c(O[C@@H]3CCOC3)n2)c1` [Compound 1592, N-[(6-amino-2-pyridyl)sulfonyl]-6-(3-fluoro-5-isobutoxy-phenyl)-2-[(3R)-tetrahydrofuran-3-yl]oxy-pyridine-3-carboxamide]: the EC30 entry is “+++ (“+++” means <3 uM)”.

For the molecule `Cc1ccccc1-c1ccc(C(=O)NS(=O)(=O)c2cccnc2N)c(N2C[C@@H](C)CC2(C)C)n1` [Compound 1766, N-[(2-amino-3-pyridyl)sulfonyl]-6-(o-tolyl)-2-[(4S)-2,2,4-trimethylpyrrolidin-1-yl]pyridine-3-carboxamide], the EC30 result was “+++ (“+++” means <3 uM)”.

`CC(C)CNc1cccc(-c2ccc(C(=O)NS(=O)(=O)c3cccc(N)n3)c(N3CC(C)CC3(C)C)n2)n1` (stereo not shown) [Compound 1059, N-[(6-amino-2-pyridyl)sulfonyl]-6-[6-(isobutylamino)-2-pyridyl]-2-(2,2,4-trimethylpyrrolidin-1-yl)pyridine-3-carboxamide]: the EC30 entry is “+++ (“+++” means <3 uM)”.

For the molecule `CCOc1cccc2c1CN(Cc1c(C)cc(C)cc1C)C2(C)C(=O)NS(=O)(=O)c1ccc(C(C)C)c(N)c1` (stereo not shown) [Compound 1562, N-(3-amino-4-isopropyl-phenyl)sulfonyl-4-ethoxy-1-methyl-2-[(2,4,6-trimethylphenyl)methyl]isoindoline-1-carboxamide], the EC30 entry is “+++ (“+++” means <3 uM)”.

As for `Cc1ccc(Oc2nc3c(cc2C(=O)NS(=O)(=O)c2cc[nH]n2)CCCC3(C)C)c(C)c1` [Compound 1246, 2-(2,4-dimethylphenoxy)-8,8-dimethyl-N-(1H-pyrazol-3-ylsulfonyl)-6,7-dihydro-5H-quinoline-3-carboxamide], the EC30 entry was “+++ (“+++” means <3 uM)”.

Regarding `CC1CN(c2ncccc2C(=O)NS(=O)(=O)c2cccc(Oc3ccc(F)cc3)n2)C(C)(C)C1` (stereo not shown) [Compound 1813, N—[[6-(4-fluorophenoxy)-2-pyridyl]sulfonyl]-2-(2,2,4-trimethylpyrrolidin-1-yl)pyridine-3-carboxamide], the EC30 result was “+++ (“+++” means <3 uM)”.

In the case of `Cc1cc(C)c(Oc2ncc(CCc3ccccc3)cc2C(=O)NS(=O)(=O)c2cccc(N)n2)c(C)c1` [Compound 1253, N-[(6-amino-2-pyridyl)sulfonyl]-5-phenethyl-2-(2,4,6-trimethylphenoxy)pyridine-3-carboxamide], the EC30 result was “++ (“++” means between 3 uM and 10 uM)”.

For the molecule `Cc1cc(C)c(Oc2nc(C(C)(C)C)ccc2C(=O)NS(=O)(=O)c2nccnc2N)c(C)c1` [Compound 1208, N-(3-aminopyrazin-2-yl) sulfonyl-6-tert-butyl-2-(2,4,6-trimethylphenoxy)pyridine-3-carboxamide], the EC30 entry is listed as “+++ (“+++” means <3 uM)”.

Turning to `Cc1cc(C)c(Oc2nc(-c3cccc(OCC4CC4)c3)ccc2C(=O)NS(=O)(=O)c2ccc[nH]c2=O)c(C)c1` [Compound 1105, 6-[3-(cyclopropylmethoxy)phenyl]-N-[(2-oxo-1H-pyridin-3-yl)sulfonyl]-2-(2,4,6-trimethylphenoxy)pyridine-3-carboxamide], the EC30 result is recorded as “+ (“+” means greater than 10 uM)”.

With `Cc1cc(C)c(Cn2nc(C(C)(C)C)cc2C(=O)NS(=O)(=O)c2ccccc2N)c(C)c1` [Compound 1167, N-(2-aminophenyl)sulfonyl-5-tert-butyl-2-[(2,4,6-trimethylphenyl)methyl]pyrazole-3-carboxamide], the EC30 result is given as “+++ (“+++” means <3 uM)”.

On to `CC(C)COc1cc(F)cc(-c2ccc(C(=O)NS(=O)(=O)c3cccc(N)n3)c(N3CC(C)CCC3C)n2)c1` (single isomer, unassigned) [Compound 1864, N-[(6-amino-2-pyridyl)sulfonyl]-2-(2,5-dimethyl-1-piperidyl)-6-(3-fluoro-5-isobutoxy-phenyl)pyridine-3-carboxamide], for which the EC30 entry was “+++ (“+++” means <3 uM)”.

In the case of `CC(C)COc1cc(F)cc(-c2ccc(C(=O)NS(=O)(=O)c3cccc(N)n3)c(OCCC(C)c3ccccc3)n2)c1` (stereo not shown) [Compound 1689, N-[(6-amino-2-pyridyl)sulfonyl]-6-(3-fluoro-5-isobutoxy-phenyl)-2-(3-phenylbutoxy)pyridine-3-carboxamide], the EC30 entry is recorded as “+++ (“+++” means <3 uM)”.

As to `CCCCCc1ccc(C(=O)NS(=O)(=O)c2cccc(N)n2)c(Oc2c(C)cc(C)cc2C)n1` [Compound 862, N-[(6-amino-2-pyridyl)sulfonyl]-6-pentyl-2-(2,4,6-trimethylphenoxy)pyridine-3-carboxamide], the EC30 result is given as “+++ (“+++” means <3 uM)”.

Take `CC(C)COc1cc(F)cc(-c2ccc(C(=O)NS(=O)(=O)c3cccc(N)n3)c(OCCC3CCCCO3)n2)c1` (stereo not shown) [Compound 1680, N-[(6-amino-2-pyridyl)sulfonyl]-6-(3-fluoro-5-isobutoxy-phenyl)-2-(2-tetrahydropyran-2-ylethoxy)pyridine-3-carboxamide]: the EC30 entry is recorded as “+++ (“+++” means <3 uM)”.

Turning to `Cc1cc(C)c(CN2C(C(=O)NS(=O)(=O)c3ccc[nH]c3=O)c3ccccc3C2(C)C)c(C)c1` (stereo not shown) [Compound 1085, 3,3-dimethyl-N-[(2-oxo-1H-pyridin-3-yl)sulfonyl]-2-[(2,4,6-trimethylphenyl)methyl]isoindoline-1-carboxamide], the EC30 entry is reported as “+++ (“+++” means <3 uM)”.

Turning to `CCOc1cccc2c1CN(Cc1c(C)cc(C)cc1C)C2(C)C(=O)NS(=O)(=O)c1ccccc1O` (stereo not shown) [Compound 1509, 4-ethoxy-N-(2-hydroxyphenyl)sulfonyl-1-methyl-2-[(2,4,6-trimethylphenyl)methyl]isoindoline-1-carboxamide], the EC30 result is “+++ (“+++” means <3 uM)”.

`Cc1cc(C)c(CN2CCc3ccccc3CC2C(=O)NS(=O)(=O)c2cccc(N)n2)c(C)c1` (stereo not shown) [Compound 1055, N-[(6-amino-2-pyridyl)sulfonyl]-3-[(2,4,6-trimethylphenyl)methyl]-1,2,4,5-tetrahydro-3-benzazepine-4-carboxamide]: the EC30 entry was “++ (“++” means between 3 uM and 10 uM)”.

In the case of `CC(C)COc1cc(F)cc(-c2ccc(C(=O)NS(=O)(=O)c3ccn[nH]3)c(N3Cc4ccccc4C3)n2)c1` [Compound 981, 6-(3-fluoro-5-isobutoxy-phenyl)-2-isoindolin-2-yl-N-(1H-pyrazol-5-ylsulfonyl)pyridine-3-carboxamide], the EC30 result was “++ (“++” means between 3 uM and 10 uM)”.

As for `CC(C)COc1cc(F)cc(-c2ccc(C(=O)NS(=O)(=O)c3cccc(N)n3)c(OC3CCCCC3C)n2)c1` (stereo not shown) [Compound 1108, N-[(6-amino-2-pyridyl)sulfonyl]-6-(3-fluoro-5-isobutoxy-phenyl)-2-(2-methylcyclohexoxy)pyridine-3-carboxamide], the EC30 entry is on record as “+++ (“+++” means <3 uM)”.

Regarding `CC(C)COc1cc(F)cc(-c2ccc(C(=O)NS(=O)(=O)c3cccc(O)c3)c(N3CCC(C)(C)CC3)n2)c1` [Compound 1309, 2-(4,4-dimethyl-1-piperidyl)-6-(3-fluoro-5-isobutoxy-phenyl)-N-(3-hydroxyphenyl)sulfonyl-pyridine-3-carboxamide], the EC30 entry was “+++ (“+++” means <3 uM)”.

For the molecule `CCOc1cccc2c1CN(Cc1c(C)cc(C)cc1C)C2(C)C(=O)NS(=O)(=O)c1cccc(C(F)F)n1` (stereo not shown) [Compound 1597, N-[[6-(difluoromethyl)-2-pyridyl]sulfonyl]-4-ethoxy-1-methyl-2-[(2,4,6-trimethylphenyl)methyl]isoindoline-1-carboxamide], the EC30 entry was “+++ (“+++” means <3 uM)”.

Turning to `Cc1ccc(-c2nc3c(cc2C(=O)NS(=O)(=O)c2ccn[nH]2)CCCC3(C)C)cc1` [Compound 1292, 8,8-dimethyl-2-(p-tolyl)-N-(1H-pyrazol-5-ylsulfonyl)-6,7-dihydro-5H-quinoline-3-carboxamide], the EC30 result is listed as “+ (“+” means greater than 10 uM)”.

Turning to `C[C@@H]1CN(c2nc(-c3ccc(F)cc3)ccc2C(=O)NS(=O)(=O)c2ccc[nH]c2=O)C(C)(C)C1` [Compound 1807, 6-(4-fluorophenyl)-N-[(2-oxo-1H-pyridin-3-yl)sulfonyl]-2-[(4S)-2,2,4-trimethylpyrrolidin-1-yl]pyridine-3-carboxamide], the EC30 result is “+++ (“+++” means <3 uM)”.

On to `CCOc1cccc2c1CN(Cc1c(C)cc(C)cc1C)C2(C)C(=O)NS(=O)(=O)c1ccccc1N` (stereo not shown) [Compound 1457, N-(2-aminophenyl)sulfonyl-4-ethoxy-1-methyl-2-[(2,4,6-trimethylphenyl)methyl]isoindoline-1-carboxamide], for which the EC30 result is on record as “+++ (“+++” means <3 uM)”.

`CC(C)COc1cnn(-c2ccc(C(=O)NS(=O)(=O)c3ccccc3)c(N3C[C@@H](C)CC3(C)C)n2)c1` [Compound 1912, N-(benzenesulfonyl)-6-(4-isobutoxypyrazol-1-yl)-2-[(4S)-2,2,4-trimethylpyrrolidin-1-yl]pyridine-3-carboxamide]: the EC30 entry was “+++ (“+++” means <3 uM)”.

Consider `CC(C)COc1cc(F)cc(-c2ccc(C(=O)NS(=O)(=O)c3cccc(N)n3)c(N3C[C@@H](F)C[C@H]3C)n2)c1` [Compound 1362, N-[(6-amino-2-pyridyl)sulfonyl]-6-(3-fluoro-5-isobutoxy-phenyl)-2-[(2R,4S)-4-fluoro-2-methyl-pyrrolidin-1-yl]pyridine-3-carboxamide], for which the EC30 entry is “+++ (“+++” means <3 uM)”.
